Test system: IL-6 production in human foreskin fibroblast cells
Assay: Inhibition of IL-6 production in fibroblasts (cell assay for transrepression)
Type: cell-based
Details: IL-1 stimulated human foreskin fibroblasts
Protocol: Human foreskin fibroblast cells produce IL-6 in response to stimulation by proinflammatory cytokine IL-1.
Human foreskin fibroblast cells (ATCC Cat. No. CRL-2429) are plated on 96 well plates at 5,000 cells per well the day before use, in Iscove's Modified Dulbecco's Media (GibcoBRL Life Technologies Cat. No. 12440-053) supplemented with 10% charcoal filtered FBS (Clonetech Cat. No. SH30068) and Gentamycin (GibcoBRL Life Technologies Cat. No. 15710-064). On the next day, media in the wells is replaced with fresh media. Cells are treated with IL-1 (rhIL-1α, R&D Systems Cat. No. 200-LA) to a final concentration of 1 ng/mL, and with test compounds to final concentrations of 10^−5 M to 10^−8 M, in a total volume of 200 μL per well. Samples are done in duplicates. […] Positive control wells receive IL-1 only and represent maximum (or 100%) amount of IL-6 production. Plates are incubated at 37° C. overnight (15 to 18 hours), and supernatants are harvested at the end of incubation. IL-6 levels in the supernatants are determined by the ELISA kits for IL-6 (MedSystems Diagnostics GmbH, Vienna, Austria, Cat. No. BMS213TEN) according to manufacture's instructions. The extent of inhibition of IL-6 by test compounds is expressed in percentage relative to positive controls. IC50 values of test compounds are derived by non-linear curve fitting.

| Structure (SMILES) | agonistic activity by inhibiting IL-6 production in Fibroblasts |
| --- | --- |
| OC(c1ccc(F)c(Cl)c1)(c1ccc2c(cnn2-c2ccccc2)c1)C(F)(F)F (stereo not shown) [1-(3-Chloro-4-fluorophenyl)-2,2,2-trifluoro-1-(1-phenyl-1H-indazol-5-yl)ethanol] | agonistic activity |
| OC(c1ccc(F)c(Cl)c1)(c1ccc2c(cnn2-c2ccc(F)cc2)c1)C(F)(F)F (stereo not shown) [1-(3-Chloro-4-fluorophenyl)-2,2,2-trifluoro-1-[1-(4-fluorophenyl)-1H-indazol-5-yl]ethanol] | agonistic activity |
| OC(c1ccc2c(cnn2-c2ccccc2)c1)(c1csc2ccccc12)C(F)(F)F (stereo not shown) [1-Benzo[b]thiophen-3-yl-2,2,2-trifluoro-1-(1-phenyl-1H-indazol-5-yl)ethanol] | agonistic activity |
| OC(c1ccc2c(cnn2-c2ccc(F)cc2)c1)(c1csc2ccccc12)C(F)(F)F (stereo not shown) [1-Benzo[b]thiophen-3-yl-2,2,2-trifluoro-1-[1-(4-fluorophenyl)-1H-indazol-5-yl]ethanol] | agonistic activity |
| OC(c1ccc2c(cnn2-c2ccccc2)c1)(c1ccnc2ccccc12)C(F)(F)F (stereo not shown) [2,2,2-Trifluoro-1-(1-phenyl-1H-indazol-5-yl)-1-quinolin-4-ylethanol] | agonistic activity |
| OC(c1ccc2c(cnn2-c2ccccc2)c1)(c1ccc(F)c2ccccc12)C(F)(F)F (stereo not shown) [2,2,2-Trifluoro-1-(4-fluoronaphthalen-1-yl)-1-(1-phenyl-1H-indazol-5-yl)ethanol] | agonistic activity |
| OC(c1ccc2c(cnn2-c2ccc(F)cc2)c1)(c1ccc(F)c2ccccc12)C(F)(F)F (stereo not shown) [2,2,2-Trifluoro-1-(4-fluoronaphthalen-1-yl)-1-[1-(4-fluorophenyl)-1H-indazol-5-yl]ethanol] | agonistic activity |
| Cc1ccc(C(O)(c2ccc3c(cnn3-c3ccc(F)cc3)c2)C(F)(F)F)c2ccccc12 (stereo not shown) [2,2,2-Trifluoro-1-[1-(4-fluorophenyl)-1H-indazol-5-yl]-1-(4-methylnaphthalen-1-yl)ethanol] | agonistic activity |
| OC(c1ccc2c(cnn2-c2ccc(F)cc2)c1)(c1cccc2ccccc12)C(F)(F)F (stereo not shown) [2,2,2-Trifluoro-1-[1-(4-fluorophenyl)-1H-indazol-5-yl]-1-naphthalen-1-ylethanol] | agonistic activity |
| OC(c1ccc2c(cnn2-c2ccccc2)c1)(c1cccc2ccccc12)C(F)(F)F (stereo not shown) [2,2,2-Trifluoro-1-naphthalen-1-yl-1-(1-phenyl-1H-indazol-5-yl)ethanol] | agonistic activity |
